Molecular target: C5 (Homo sapiens, UniProt P01031)
Type: cell-based

Chain of C5 (P01031 678-1676): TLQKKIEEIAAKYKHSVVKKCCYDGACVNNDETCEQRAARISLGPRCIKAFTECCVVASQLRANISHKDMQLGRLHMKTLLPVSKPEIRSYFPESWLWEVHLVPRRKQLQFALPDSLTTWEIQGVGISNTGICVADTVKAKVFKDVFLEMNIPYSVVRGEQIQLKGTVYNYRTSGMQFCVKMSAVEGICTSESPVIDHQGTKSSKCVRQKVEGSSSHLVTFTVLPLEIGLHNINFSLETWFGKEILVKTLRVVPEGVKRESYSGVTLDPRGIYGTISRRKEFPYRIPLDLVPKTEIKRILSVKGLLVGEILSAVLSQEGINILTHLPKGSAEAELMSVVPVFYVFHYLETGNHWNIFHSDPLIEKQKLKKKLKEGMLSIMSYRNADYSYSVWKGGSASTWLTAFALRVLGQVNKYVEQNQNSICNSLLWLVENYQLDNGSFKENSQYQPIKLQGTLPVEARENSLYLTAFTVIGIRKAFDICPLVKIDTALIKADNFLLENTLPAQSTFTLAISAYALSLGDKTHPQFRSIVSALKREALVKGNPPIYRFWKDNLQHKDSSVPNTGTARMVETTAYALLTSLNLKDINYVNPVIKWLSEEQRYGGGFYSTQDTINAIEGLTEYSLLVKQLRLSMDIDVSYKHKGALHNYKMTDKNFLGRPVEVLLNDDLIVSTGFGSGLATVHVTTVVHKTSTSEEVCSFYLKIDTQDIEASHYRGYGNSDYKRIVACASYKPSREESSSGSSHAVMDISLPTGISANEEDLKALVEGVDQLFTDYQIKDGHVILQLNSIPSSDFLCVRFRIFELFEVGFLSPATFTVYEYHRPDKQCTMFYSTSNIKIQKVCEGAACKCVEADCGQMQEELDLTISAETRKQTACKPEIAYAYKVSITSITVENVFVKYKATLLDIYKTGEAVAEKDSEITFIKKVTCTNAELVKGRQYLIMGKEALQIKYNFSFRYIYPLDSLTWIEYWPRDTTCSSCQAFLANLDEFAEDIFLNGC
Chain of C5 (P01031 19-673): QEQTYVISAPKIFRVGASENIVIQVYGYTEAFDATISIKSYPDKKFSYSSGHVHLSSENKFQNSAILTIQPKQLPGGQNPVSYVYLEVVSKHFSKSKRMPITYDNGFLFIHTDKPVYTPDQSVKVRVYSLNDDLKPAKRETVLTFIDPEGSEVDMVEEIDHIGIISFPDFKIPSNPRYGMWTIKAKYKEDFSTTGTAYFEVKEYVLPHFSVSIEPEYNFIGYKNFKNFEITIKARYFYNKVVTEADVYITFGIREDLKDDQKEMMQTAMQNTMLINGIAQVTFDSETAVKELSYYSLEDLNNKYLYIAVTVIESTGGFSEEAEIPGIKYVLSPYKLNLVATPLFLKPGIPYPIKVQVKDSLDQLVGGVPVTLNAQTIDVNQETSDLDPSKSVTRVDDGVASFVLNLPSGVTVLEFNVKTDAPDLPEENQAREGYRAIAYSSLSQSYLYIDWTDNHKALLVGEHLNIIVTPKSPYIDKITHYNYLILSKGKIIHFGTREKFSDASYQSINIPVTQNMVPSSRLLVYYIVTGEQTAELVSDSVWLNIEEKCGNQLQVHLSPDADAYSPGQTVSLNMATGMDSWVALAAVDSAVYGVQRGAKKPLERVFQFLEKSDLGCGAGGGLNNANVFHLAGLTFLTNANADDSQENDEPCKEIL

Eculizumab
effect of C5 inhibition on MRB LCMV G neutralization: able to prevent viral neutralization
